Measured values published in patent US11779015B2, “Pesticide compositions” (FUNDACIÓ CENTRE DE REGULACIÓ GENÒMICA, priority 2017, dated 2023).
“Also recorded” adds a separate entry of the source.

Experiments:
D. suzukii [1] = assay: Airborne toxicity petri dish assay, adult flies exposed to VOC vapours (FIG. 1A); format: in vivo, Drosophila suzukii; conditions: for LD50 (expected concentration at which 50% of the flies die): D. suzukii adults, vapours from solution in paraffin oil, within an hour; for T50 (time at which 50% of the flies were dead) / T50: D. suzukii; for T50: 10% vol; for airborne toxicity/lethality in the initial screen with a high dose (words): VOC at 10 M in paraffin oil, vapour exposure, 1 hour; for specificity of toxicity, D. suzukii versus D. melanogaster: at least at the 3, 5 and 10% vol concentrations
Procedure: A selection of compounds according to the invention were tested for airborne toxicity to D. suzukii by exposing a population of adult D. suzukii flies to the vapours of the compound using an experimental set up as shown on FIG. 1A.
(§1) In particular, adult flies 2 were exposed to compositions 4 comprising one or more of a selection of VOCs according to the invention or a comparative example, in a petri dish 6. The compositions 4 were loaded onto the lid 6a of the petri dish 6 and the flies were placed into the base 6b of the dish, which was then covered by a sheet of plastic mesh netting 8 to avoid direct contact of the flies 2 with the compositions 4, before replacing the lid 6a.
[…] Four drops of 50 microlitres were dispensed into reinforcement rings (not shown) fixed on the inner surface of the petri dish lid 6a.
The experimental set up used was as described in relation to FIG. 1A.
The data is shown as averages±SEM based on 3 to 6 trials for each condition.

D. melanogaster = assay: as above; format: in vivo, Drosophila melanogaster; conditions: for LD50 (expected concentration at which 50% of the flies die): D. melanogaster adults, vapours from solution in paraffin oil, within an hour
Excerpt: as §1, with “6a. The onset of paralysis/loss of locomotion control, ultimately resulting in death of the flies 2, was monitored over a period of 1 hour or until all flies 2 were dead, determined when fly wings were vertical (similar to the protocol described in Legal et al. 1992 and 1994).” for “6a.”
Having established that the VOCs of the invention are toxic to Drosophila spp., and in particular, D. suzukii, upon exposure to the vapours from a 10% vol. solution, the inventors set out to determine the range of concentrations at which the pesticide VOCs of the invention are expected to be lethal to Drosphila spp. Two species were chosen: the pest D. suzukii and the common Drosophila model D. melanogaster. Two exemplary compounds were chosen: (E)-2-hexenal and methyl benzoate, both of which were shown in Example 1 to be highly toxic to D. suzukii. The experimental set up used was as described in relation to FIG. 1A.
FIGS. 3A and 3C show the proportion of dead flies as a function of time in minutes, when exposed to the vapours of (E)-2-hexenal (FIG. 3A) or methyl benzoate (FIG. 3C) from a 1%, 5%, 10%, or 20% solution in paraffin oil or from pure (E)-2-hexenal or methyl benzoate. […] The data is shown as averages±SEM based on 3 to 6 trials for each condition. […]

D. melangaster larvae = assay: Fly larva chemotaxis assay; format: in vivo, Drosophila melanogaster; conditions: D. melanogaster larvae, 1% vol in paraffin oil, 5 minutes
Procedure: Larvae were exposed to 1% vol solution of (E)-2-hexenal or methyl benzoate in paraffin oil loaded onto the lid of a petri dish. Their movement was tracked for 5 minutes. A preference index was quantified as the fraction of time larvae spent in a zone around the odour sources. A population of 15 larvae were used per trial and they were placed in the centre of the petri dish at the start of the experiment. The average distance of the larvae to the odour sources was also quantified over time. The results of this analysis are shown on FIG. 9, for each of the conditions where a VOC of the invention was used. A total of 10 trials were performed for each condition, i.e. for each VOC and fly species, and 30 trials were performed for a control condition, for which only the solvent paraffin oil was applied.
Behavioural experiments were performed with third instar foraging larvae. A group of approximately 15 larvae per trial was placed in a Petri dish and monitored during 5 minutes for their chemotactic behaviour, as larvae were exposed to an odour gradient in gas phase emanating from the two odour sources on the lid of the Petri dish. […] Larval behaviour was tracked using a video camera and the data derived was then analysed in Matlab (MathWorks) using custom-made programs to calculate additional time-series variables, and to determine the preference index and the distance of larvae to the source.

adult D. suzukii flies = assay: Petri dish assay, dose-range 0.3 to 10% vol in paraffin oil, 24 h exposure (FIG. 3E); format: in vivo, Drosophila suzukii; conditions: paraffin oil, 24 h exposure (Example 2)
Excerpt: Data are represented as mean proportion of dead flies, with counts separated between male (as indicated by ‘M’) and female (as indicated by ‘F’) flies. […] Data points marked NaN were not tested at the indicated concentration. The MEC column summarises the minimal effective concentration to induce 100% morbidity/mortality to adult D. suzukii flies.

D. suzukii [2] = assay: Infestation of pre-odour-treated blueberries, emergence of adult flies; format: in vivo, Drosophila suzukii; conditions: 48 hours with adult flies, counted after 14 days
Procedure: Adult mixed female and male flies 20 (in the experiments below, D. suzukii flies) are placed in a cylindrical cage 60a with mesh roofing 80 for ventilation. Fruits 40 (in the experiments below 8 blueberries were used) are placed into a petri dish bottom 60b at the bottom of the cage 60a.
The blueberries were treated with (E)-2-hexenal and then exposed to flies. The impact of 1% vol, 5% vol and 10% vol aqueous emulsions of (E)-2-hexenal (obtained by dissolving the VOC in deionized water (DI) containing 1% (v/v) Tween 20 hydrophilic emulsifier) on egg-laying and the survival and development of larvae in pre-treated blueberries were compared to water-treated controls. In particular, the number of flies emerging after 14 days at ambient temperature was counted, following 48 hours of incubation of the treated blueberries with adult flies. The results of this analysis are shown on FIG. 6B. […] Significance was assessed by one-way ANOVA followed by Bonferroni correction at p≤0.05 and post-hoc two-sample t-test.
Eight ripe blueberries were dipped into 10 mL of a 1%, 5% or 10% aqueous emulsion of (E)-2-hexenal or deionised water as a control and left to air dry. They were then placed in a Petri dish at the bottom of a cylindrical plastic fly cage (∅=5.5 cm, h=7.5 cm), together with 20 mixed (10 females, 10 males) adult D. suzukii flies. The flies were exposed to the odour-treated blueberries during 48 hours at ambient room temperature conditions, after which they were removed and discarded. The blueberries were then transferred into an empty fly vial with cotton lids, and after 14 days at ambient room temperature conditions, the emergence of adult D. suzukii was examined by counting the number of flies. The assay was repeated 5 times.

[3] = system: honeybees (Apis mellifera); assay: Airborne toxicity on honeybees in the petri dish assay; format: in vivo; conditions: applied concentration 4%, paraffin oil, 24 hours
[4] = D. melanogaster, concentration 1% vol
[5] = D. melanogaster, concentration 5% vol
[6] = D. melanogaster, concentration 10% vol
[7] = D. melanogaster, concentration 20% vol
[8] = D. melanogaster, concentration 100% vol

| SMILES | LD50 (expected concentration at which 50% of the flies die) (D. suzukii [1]) [% vol] | T50 (time at which 50% of the flies were dead) (D. suzukii [1]; 1% concentration) | T50 (D. suzukii [1]) [min] | T50 (time at which 50% of the flies were dead) (D. suzukii [1]; concentration 5% vol) [min] | T50 (time at which 50% of the flies were dead) (D. suzukii [1]; concentration 10% vol) [min] | T50 (time at which 50% of the flies were dead) (D. suzukii [1]; concentration 20% vol) [min] | T50 (time at which 50% of the flies were dead) (D. suzukii [1]; concentration 100% vol) [min] | airborne toxicity/lethality in the initial screen with a high dose (words) (D. suzukii [1]) | specificity of toxicity, D. suzukii versus D. melanogaster (D. suzukii [1]) | LD50 (expected concentration at which 50% of the flies die) (D. melanogaster) [% vol] | T50 (time at which 50% of the flies were dead) (D. melanogaster; [4]) | T50 (time at which 50% of the flies were dead) (D. melanogaster; [5]) | T50 (time at which 50% of the flies were dead) (D. melanogaster; [6]) | T50 (time at which 50% of the flies were dead) (D. melanogaster; [7]) [min] | T50 (time at which 50% of the flies were dead) (D. melanogaster; [8]) [min] | other results |
| --- | --- | --- | --- | --- | --- | --- | --- | --- | --- | --- | --- | --- | --- | --- | --- | --- |
| COC(=O)c1ccccc1 [methyl benzoate, Methyl benzoate] | 3 | not lethal | 5.9 | 9.8 | 5.9 | 4.2 | 2.8 | highly toxic; also recorded: showed toxicity | specific toxicity towards D. suzukii | 7.5 | non lethal | non lethal | 18.2 min | 9.8 | 9.1 | T50 (D. melanogaster; D. melanogaster, 10% vol): 18.2 min; larval chemotactic response (D. melangaster larvae): attractive |
| CCC/C=C/C=O [(E)-2-hexenal] | 3 | not lethal | 4.1 | 9.3 | 4.1 | 1.6 | 1.2 | highly toxic; also recorded: showed toxicity | specific toxicity towards D. suzukii | 13.8 | not lethal | not lethal | not lethal | 6.5 | 6.2 | lethality as a function of the sex of the flies (D. suzukii [1]; 5% vol in paraffin solution, adult D. suzukii, males vs females): males displayed more sensitivity; Minimal concentration (%) to induce 100% morbidity/mortality in D. suzukii adults (adult D. suzukii flies): 4%; fly emergence from pre-treated blueberries versus untreated (D. suzukii [2]; 1% aqueous emulsion): not significantly different from untreated berries; fly emergence from pre-treated blueberries versus untreated (D. suzukii [2]; 5% aqueous emulsion): significant reduction of fly emergence; fly emergence from pre-treated blueberries versus untreated (D. suzukii [2]; 10% aqueous emulsion): significant reduction of fly emergence; Percentage of dead honey bee adults (%) [3]: 0% |
